# Measurements from patent US20180185490A1 (R&D PHARMA, priority 2017, published 2018).
# Assays:
# rat = settings: by mouth; cited from earlier work
# [1] = Irritation of eyes and mucous membranes; assay type: in vivo; settings: pure or concentrated GBL
# From the text: (§1) Its tolerance in subungual and periungual application is good and perfectly compatible with the desired therapeutic effect.
# [2] = Tolerance in subungual and periungual application; assay type: in vivo
# From the text: as §1
# DNA = settings: cited from earlier work
compound,measurement,setting,value
"O=C1CCCO1 [GBL, gamma-butyrolactone]",LD50,rat,17.2 mL/kg
same,irritation of eyes and mucous membranes,[1],irritating to the eyes and the mucous membranes
same,tolerance in subungual and periungual application,[2],good
same,alteration of DNA,DNA,no alteration of DNA
